Data published in patent US8575218B2, “Thiol-containing compounds for the removal of elements from tissues and formulations therefor” (priority 2009, dated 2013).

What was measured:
[1] = Solubility of isolated product in solvents; assay type: physicochemical
goldfish = assay: Exposure of goldfish to mercuric acetate with and without chelators; assay type: in vivo
Description: Individual goldfish were placed in 200 ml water with 10 mM sodium chloride in 250 ml Erlenmeyer flasks (pH 7.00). Air was pumped into the flasks to maintain a healthy supply of oxygen. The 24 hour day was divided in to a 12 hour light/dark photoperiod. The goldfish were allowed to acclimatize for a week before the experiment was conducted, with daily water changes. Goldfish were fed standard fish food for 15 minutes each day before the water was changed.
The chelate ligands were dissolved in dimethyl sulfoxide (DMSO, 0.5 ml) before addition to the flasks. The experimental treatments evaluated are as listed in Table 1 below, and included mercuric acetate, B9, EEAB9, GB9, GEEAB9, and DMSO in the amounts shown in Table 1. B9 and EEAB9 were dissolved in DMSO (0.5 ml) before addition to the water. No precipitate was formed during the dissolution.

For `NC(CCC(=O)NC(CSSCCNC(=O)c1cccc(C(=O)NCCSSCC(NC(=O)CCC(N)C(=O)O)C(=O)NCC(=O)O)c1)C(=O)NCC(=O)O)C(=O)O` (stereo not shown) [GB9], the Solubility in solvents [1] was “readily dissolved in water”.
With `CC(=O)[O-].CC(=O)[O-].[Hg+2]` [Mercuric acetate] the “Goldfish state (Alive/Dead) at 30 min” value (goldfish; mercuric acetate 0.5 mM + DMSO 0.5 ml) was “Dead”, the “Goldfish state (Alive/Dead) at 30 min” value (goldfish; mercuric acetate 0.5 mM alone) was “Dead” and the “Time to death of goldfish” value (goldfish; mercuric acetate without chelator) was ≤ 30 min.
